Experiments:
[1] = target: Neuronal acetylcholine receptor; alpha4/beta4 (Rattus norvegicus, UniProt P09483+P12392); experiment: Displacement of [3H]epibatidine from alpha4beta4 nAChR after 4 hrs by liquid scintillation counting analysis; format: protein-complex assay
[2] = target: T1, Neuronal acetylcholine receptor; alpha4/beta2 (Rattus norvegicus, UniProt P09483+P12390); experiment: Displacement of [3H]epibatidine from alpha4beta2* nAChR in rat forebrain after 4 hrs by liquid scintillation counting analysis
T1 sequence (P09483 whole entry): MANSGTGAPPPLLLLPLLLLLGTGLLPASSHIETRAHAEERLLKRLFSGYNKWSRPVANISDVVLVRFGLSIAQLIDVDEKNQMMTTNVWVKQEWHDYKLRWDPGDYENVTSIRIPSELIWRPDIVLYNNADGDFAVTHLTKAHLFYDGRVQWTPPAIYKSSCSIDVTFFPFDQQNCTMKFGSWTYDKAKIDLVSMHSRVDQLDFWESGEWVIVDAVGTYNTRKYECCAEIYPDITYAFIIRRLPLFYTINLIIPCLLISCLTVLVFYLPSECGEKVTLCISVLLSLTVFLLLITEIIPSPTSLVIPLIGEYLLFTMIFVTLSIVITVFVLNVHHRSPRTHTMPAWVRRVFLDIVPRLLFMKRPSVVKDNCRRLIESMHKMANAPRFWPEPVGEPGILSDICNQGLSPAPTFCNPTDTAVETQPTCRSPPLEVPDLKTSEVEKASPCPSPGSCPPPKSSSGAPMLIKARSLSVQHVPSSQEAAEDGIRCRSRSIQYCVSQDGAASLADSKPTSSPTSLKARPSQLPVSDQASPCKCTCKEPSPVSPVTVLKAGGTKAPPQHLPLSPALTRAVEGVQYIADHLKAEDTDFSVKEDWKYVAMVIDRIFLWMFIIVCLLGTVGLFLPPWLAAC
T1 sequence (P12390 whole entry): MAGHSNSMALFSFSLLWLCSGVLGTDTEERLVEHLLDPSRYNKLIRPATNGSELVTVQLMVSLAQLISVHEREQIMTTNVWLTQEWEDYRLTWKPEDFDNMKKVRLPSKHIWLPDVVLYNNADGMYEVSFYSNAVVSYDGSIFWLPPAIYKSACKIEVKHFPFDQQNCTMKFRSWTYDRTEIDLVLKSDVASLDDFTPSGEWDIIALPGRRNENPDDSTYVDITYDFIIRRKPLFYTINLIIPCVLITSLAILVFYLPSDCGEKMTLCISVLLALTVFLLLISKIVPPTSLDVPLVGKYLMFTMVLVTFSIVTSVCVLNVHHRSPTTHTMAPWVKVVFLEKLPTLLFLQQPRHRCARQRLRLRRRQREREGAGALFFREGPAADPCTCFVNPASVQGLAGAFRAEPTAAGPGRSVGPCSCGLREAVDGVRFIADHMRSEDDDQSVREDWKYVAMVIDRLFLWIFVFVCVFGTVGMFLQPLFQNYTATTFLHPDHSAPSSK

[3] = target: T1, Neuronal acetylcholine receptor; alpha4/beta2; experiment: Displacement of [3H]epibatidine from alpha4beta2 nAChR after 4 hrs by liquid scintillation counting analysis; format: protein-complex assay
[4] = target: Neuronal acetylcholine receptor; alpha3/beta4 (Rattus norvegicus, UniProt P04757+P12392); experiment: Displacement of [3H]epibatidine from alpha3beta4 nAChR after 4 hrs by liquid scintillation counting analysis; format: protein-complex assay
Neuronal acetylcholine receptor; alpha3/beta4, sequence (P04757 whole entry): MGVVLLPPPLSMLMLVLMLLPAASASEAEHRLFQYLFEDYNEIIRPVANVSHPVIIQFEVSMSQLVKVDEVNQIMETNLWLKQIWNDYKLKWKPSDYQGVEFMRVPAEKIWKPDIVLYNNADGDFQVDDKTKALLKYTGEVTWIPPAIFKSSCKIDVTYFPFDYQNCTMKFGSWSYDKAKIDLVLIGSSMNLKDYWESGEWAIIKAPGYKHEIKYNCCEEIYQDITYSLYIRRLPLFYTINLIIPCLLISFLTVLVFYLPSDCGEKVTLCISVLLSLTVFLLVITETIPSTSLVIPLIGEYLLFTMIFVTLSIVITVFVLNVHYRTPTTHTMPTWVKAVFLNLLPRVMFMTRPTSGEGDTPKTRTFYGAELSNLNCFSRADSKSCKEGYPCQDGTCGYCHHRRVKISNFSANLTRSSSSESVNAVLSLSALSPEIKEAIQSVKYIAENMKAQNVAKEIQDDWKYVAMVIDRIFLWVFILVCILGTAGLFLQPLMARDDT
Neuronal acetylcholine receptor; alpha3/beta4, sequence (P12392 whole entry): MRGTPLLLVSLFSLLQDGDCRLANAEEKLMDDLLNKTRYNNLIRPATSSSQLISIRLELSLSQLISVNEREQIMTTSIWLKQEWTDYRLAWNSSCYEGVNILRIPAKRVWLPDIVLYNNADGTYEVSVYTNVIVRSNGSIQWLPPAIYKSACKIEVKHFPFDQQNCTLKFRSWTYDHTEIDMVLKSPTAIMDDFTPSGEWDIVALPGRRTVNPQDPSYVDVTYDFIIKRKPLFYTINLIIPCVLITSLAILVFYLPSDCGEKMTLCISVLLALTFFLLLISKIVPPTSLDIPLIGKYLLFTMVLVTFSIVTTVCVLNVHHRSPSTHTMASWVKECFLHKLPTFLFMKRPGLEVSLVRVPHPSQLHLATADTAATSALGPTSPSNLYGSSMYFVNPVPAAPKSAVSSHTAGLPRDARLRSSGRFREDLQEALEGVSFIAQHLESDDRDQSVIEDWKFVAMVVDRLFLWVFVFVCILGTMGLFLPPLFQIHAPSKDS

[5] = target: Neuronal acetylcholine receptor; alpha3/beta2 (Rattus norvegicus, UniProt P04757+P12390); experiment: Displacement of [3H]epibatidine from alpha3beta2 nAChR after 4 hrs by liquid scintillation counting analysis; format: protein-complex assay
Neuronal acetylcholine receptor; alpha3/beta2, sequence (P04757 whole entry): as the sequence (P04757 whole entry) above
Neuronal acetylcholine receptor; alpha3/beta2, sequence (P12390 whole entry): as the sequence (P12390 whole entry) above

[6] = target: Neuronal acetylcholine receptor; alpha2/beta4 (Rattus norvegicus, UniProt P12389+P12392); experiment: Displacement of [3H]epibatidine from alpha2beta4 nAChR after 4 hrs by liquid scintillation counting analysis; format: protein-complex assay
Neuronal acetylcholine receptor; alpha2/beta4, sequence (P12389 whole entry): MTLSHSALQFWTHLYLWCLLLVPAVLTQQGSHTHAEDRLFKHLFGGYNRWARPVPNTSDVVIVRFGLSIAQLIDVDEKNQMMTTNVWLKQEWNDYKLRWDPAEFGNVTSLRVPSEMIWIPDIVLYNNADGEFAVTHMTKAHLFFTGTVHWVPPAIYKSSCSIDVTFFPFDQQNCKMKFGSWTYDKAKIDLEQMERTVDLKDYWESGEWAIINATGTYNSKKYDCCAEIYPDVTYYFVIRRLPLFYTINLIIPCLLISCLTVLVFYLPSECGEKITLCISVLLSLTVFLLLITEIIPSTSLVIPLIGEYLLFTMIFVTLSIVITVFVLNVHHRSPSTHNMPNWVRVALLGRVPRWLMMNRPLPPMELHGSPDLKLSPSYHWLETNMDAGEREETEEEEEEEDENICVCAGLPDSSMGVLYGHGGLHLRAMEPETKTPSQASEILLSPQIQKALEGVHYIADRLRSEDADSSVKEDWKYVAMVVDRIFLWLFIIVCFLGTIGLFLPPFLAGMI
Neuronal acetylcholine receptor; alpha2/beta4, sequence (P12392 whole entry): as the sequence (P12392 whole entry) above

PC-12 = experiment: Displacement of [3H]DTG from sigma 2 receptor in rat PC12 cell membrane at 10 uM after 2 hrs by microbeta scintillation counting analysis; format: cell membranes
[7] = target: Sigma non-opioid intracellular receptor 1 (Rattus norvegicus, UniProt Q9R0C9); experiment: Displacement of [3H]pentazocine from sigma 1 receptor in rat brain membrane after 2.5 hrs by microbeta scintillation counting analysis; format: cell membranes
Sigma non-opioid intracellular receptor 1 (Rattus norvegicus, UniProt Q9R0C9), sequence (Q9R0C9 whole entry): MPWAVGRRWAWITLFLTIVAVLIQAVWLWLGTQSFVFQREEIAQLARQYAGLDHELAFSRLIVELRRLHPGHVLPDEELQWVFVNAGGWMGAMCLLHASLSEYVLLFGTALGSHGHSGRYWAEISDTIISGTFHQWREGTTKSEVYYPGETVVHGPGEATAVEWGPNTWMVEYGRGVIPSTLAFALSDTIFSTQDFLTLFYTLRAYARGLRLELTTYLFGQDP

[8] = target: Sigma non-opioid intracellular receptor 1 (Rattus norvegicus) (UniProt Q9R0C9); experiment: Displacement of [3H]pentazocine from sigma 1 receptor in rat brain membrane at 10 uM after 2.5 hrs by microbeta scintillation counting analysis; format: cell membranes
Sigma non-opioid intracellular receptor 1 (Rattus norvegicus), sequence (Q9R0C9 whole entry): as above

[9] = Displacement of [3H]DTG from sigma 2 receptor in rat PC12 cell membrane after 2 hrs by microbeta scintillation counting analysis; format: cell membranes; conditions: pc-12
[10] = target: Sigma non-opioid intracellular receptor 1 (Homo sapiens, UniProt Q99720); experiment: Binding affinity to sigma 1 receptor
Sigma non-opioid intracellular receptor 1 (Homo sapiens, UniProt Q99720), sequence (Q99720 whole entry): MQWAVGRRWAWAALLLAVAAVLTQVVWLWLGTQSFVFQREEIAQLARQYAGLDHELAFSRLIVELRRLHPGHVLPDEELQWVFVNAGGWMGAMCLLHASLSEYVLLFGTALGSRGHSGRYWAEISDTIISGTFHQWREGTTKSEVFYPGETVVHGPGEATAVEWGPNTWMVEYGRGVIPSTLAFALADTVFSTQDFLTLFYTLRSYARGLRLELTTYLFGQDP

Neuronal acetylcholine receptor; alpha4/beta4, sequence (P09483 whole entry): as the sequence (P09483 whole entry) above
Neuronal acetylcholine receptor; alpha4/beta4, sequence (P12392 whole entry): as the sequence (P12392 whole entry) above

Row | Compound | Activity (PC-12) [%] | Ki [7] [nM] | Activity [8] [%] | other results
1 | Clc1cncc(OCc2cc(OC[C@@H]3CCN3)no2)c1 | < 50 | 103 | – | Ki [1]: 5580 nM; Ki [2]: > 10000 nM; Ki [3]: 2220 nM; Ki [4]: 6100 nM; Ki [5]: > 10000 nM; Ki [6]: 1820 nM
2 | OCc1cc(OC[C@@H]2CCN2)on1 | < 50 | – | < 50 | –
3 | Cc1cc(OC[C@@H]2CCN2)no1 | < 50 | – | < 50 | –
4 | c1ccc(OCc2cc(OC[C@@H]3CCN3)on2)cc1 | < 50 | 328 | – | –
5 | c1ccc(OCc2cc(OC[C@@H]3CCCN3)on2)cc1 | < 50 | 4.2 | – | –
6 | Cc1cc(OC[C@@H]2CCN2)on1 | < 50 | – | < 50 | –
7 | c1c(OC[C@@H]2CCN2)noc1COCC1CC1 | – | – | < 50 | Ki [9]: 369 nM
8 | COC(=O)[C@@]1(c2ccccc2)C[C@H]1CN(C)C12CC3CC(CC(C3)C1)C2 | – | – | – | Ki [10]: 2.1 nM
9 | COCc1cc(OC[C@@H]2CCN2)no1 | < 50 | – | < 50 | –

— ChEMBL document CHEMBL2203055, “From α4β2 Nicotinic Ligands to the Discovery of σ1 Receptor Ligands: Pharmacophore Analysis and Rational Design” (ACS Med Chem Lett, 2012)
